Source: ChEMBL document CHEMBL1145520, “RAS-RAF-MEK-dependent oxidative cell death involving voltage-dependent anion channels” (Nature, 2007)

System: HT-1080
Experiment: Induction of cell death in human HT1080 cells in presence of U0126 by trypan blue exclusion method
Type: functional, cell-based

## CCOc1ccccc1-n1c(C(C)N2CCN(C(=O)COc3ccc(Cl)cc3)CC2)nc2ccccc2c1=O (stereo unspecified) [ERASTIN]
  IC50: 3.4 µM
